Measurements from patent US9999222B2, “Herbicidal combination comprising azines” (BASF SE, priority 2014, dated 2018).
Where two headings read alike, the source gives them in different places.

Columns and labels:
Assay in all cases: Greenhouse test, pre-emergence treatment
COMBE = format: in vivo, Commelina benghalensis; details: Commelina benghalensis, pre-emergence, 480 h
Excerpt: (§1) The culture containers used were plastic flowerpots containing loamy sand with approximately 3.0% of humus as the substrate. The seeds of the test plants were sown separately for each species.
(§2) For the pre-emergence treatment, the active ingredients, which had been suspended or emulsified in water, were applied directly after sowing by means of finely distributing nozzles. The containers were irrigated gently to promote germination and growth and subsequently covered with transparent plastic hoods until the plants had rooted. This cover caused uniform germination of the test plants, unless this had been impaired by the active ingredients.
(§3) Depending on the species, the plants were kept at 10-25° C. or 20-35° C., respectively.
(§4) The test period extended over 2 to 4 weeks. During this time, the plants were tended, and their response to the individual treatments was evaluated.
(§5) Evaluation was carried out using a scale from 0 to 100. 100 means no emergence of the plants, or complete destruction of at least the aerial moieties, and 0 means no damage, or normal course of growth. A moderate herbicidal activity is given at values of at least 60, a good herbicidal activity is given at values of at least 70, and a very good herbicidal activity is given at values of at least 85.
(§6) The respective stated components a and b, and if appropriate, c were formulated as a 10% by weight strength emulsion concentrate and, with addition of the amount of solvent system, introduced into the spray liquor used for applying the active compound.
(§7) In the examples, the solvent used was water.
(§8) In the examples below, using the method of S. R. Colby (1967) “Calculating synergistic and antagonistic responses of herbicide combinations”, Weeds 15, p. 22ff., the value E, which is expected if the activity of the individual active compounds is only additive, was calculated. E=X+Y−(X·Y/100) where • X=percent activity using active compound a at an application rate A; • Y=percent activity using active compound b at an application rate B; • E=expected activity (in %) by a+b at application rates A+B.
(§9) If the value found experimentally is higher than the value E calculated according to Colby, a synergistic effect is present.

GALAP = format: in vivo, Galium aparine; details: Galium aparine, pre-emergence, 480 h
Excerpt: as §1, §2, §3, §4, §5, §6, §7, §8, §9

KCHSC = format: in vivo, Kochia scoparia; details: Bassia scoparia, pre-emergence, 480 h
Excerpt: as §1, §2, §3, §4, §5, §6, §7, §8, §9

ANTAR = format: in vivo; details: Anthemis arvensis, 480 h, 20 DAT, read-out: observed % activity
Excerpt: as §1, §2, §3, §4, §5, §6, §7, §8, §9

EPHHL = format: in vivo, Euphorbia heterophylla; details: Euphorbia heterophylla, pre-emergence, 480 h
Excerpt: as §1, §2, §3, §4, §5, §6, §7, §8, §9

SIDRH = format: in vivo, Sida rhombifolia; details: Sida rhombifolia, pre-emergence, 480 h, 20 DAT, read-out: observed % activity
Excerpt: as §1, §2, §3, §4, §5, §6, §7, §8, §9

POLCO = format: in vivo, Polygonum convolvulus; details: Fallopia convolvulus, pre-emergence, 480 h
Excerpt: as §1, §2, §3, §4, §5, §6, §7, §8, §9

ABUTH = format: in vivo, Abutilon theophrasti; details: Abutilon theophrasti, 480 h
Excerpt: as §1, §2, §3, §4, §5, §6, §7, §8, §9

IPOHE = format: in vivo, Ipomoea hederacea; details: Ipomoea hederacea, 480 h
Excerpt: as §1, §2, §3, §4, §5, §6, §7, §8, §9

CENCY = format: in vivo; details: 480 h, individual, read-out: observed % activity 20 DAT
GERPU = format: in vivo, Geranium pusillum; details: Geranium pusillum, pre-emergence, 480 h
Excerpt: as §1, §2, §3, §4, §5, §6, §7, §8, §9

[1] = 250 g ai/ha, 20 DAT, read-out: observed % activity
[2] = 500 g ai/ha, 20 DAT, read-out: observed % activity
[3] = 25 g ai/ha, 20 DAT, read-out: observed % activity
[4] = 50 g ai/ha, 20 DAT, read-out: observed % activity

Question: Which results are given for Cc1ccc(NC(=O)N(C)C)cc1Cl [chlorotoluron]?
Answer: inhibition at 250 g/ha (COMBE; [1]): 20%; inhibition at 125 g/ha (COMBE; COMBE, individual, use rate 125 g ai/ha, read-out: observed % activity 20 DAT): 0%; inhibition at 250 g/ha (COMBE; COMBE, individual, use rate 250 g ai/ha, read-out: observed % activity 20 DAT): 0%; inhibition at 500 g/ha (GALAP; [2]): 50%; inhibition at 125 g/ha (GALAP; GALAP, individual, use rate 125 g ai/ha, read-out: observed % activity 20 DAT): 25%; inhibition at 250 g/ha (GALAP; GALAP, individual, use rate 250 g ai/ha, read-out: observed % activity 20 DAT): 30%; inhibition at 250 g/ha (KCHSC; [1]): 20%; inhibition at 500 g/ha (KCHSC; [2]): 50%; inhibition at 125 g/ha (KCHSC; KCHSC, individual, use rate 125 g ai/ha, read-out: observed % activity 20 DAT): 15%; inhibition at 250 g/ha (ANTAR; 250 g ai/ha): 45%; inhibition at 500 g/ha (ANTAR; 500 g ai/ha): 45%; inhibition at 250 g/ha (EPHHL; [1]): 0%; inhibition at 250 g/ha (EPHHL; EPHHL, individual, use rate 250 g ai/ha, read-out: observed % activity 20 DAT): 15%; inhibition at 250 g/ha (SIDRH; 250 g ai/ha): 0%; inhibition at 500 g/ha (SIDRH; 500 g ai/ha): 0%; inhibition at 250 g/ha (POLCO; [1]): 0%; inhibition at 500 g/ha (POLCO; [2]): 20%; inhibition at 250 g/ha (POLCO; POLCO, individual, use rate 250 g ai/ha, read-out: observed % activity 20 DAT): 0%; inhibition at 250 g/ha (ABUTH; [1]): 0%; inhibition at 500 g/ha (ABUTH; [2]): 0%; inhibition at 125 g/ha (ABUTH; ABUTH, individual, use rate 125 g ai/ha, read-out: observed % activity 20 DAT): 0%; inhibition at 250 g/ha (ABUTH; ABUTH, individual, use rate 250 g ai/ha, read-out: observed % activity 20 DAT): 0%; inhibition at 500 g/ha (IPOHE; [2]): 0%; inhibition at 250 g/ha (IPOHE; IPOHE, individual, use rate 250 g ai/ha, read-out: observed % activity 20 DAT): 0%; inhibition at 125 g/ha (CENCY; use rate 125 g ai/ha): 20%; inhibition at 250 g/ha (CENCY; use rate 250 g ai/ha): 0%; inhibition at 250 g/ha (GERPU; [1]): 25%; inhibition at 500 g/ha (GERPU; [2]): 20%; inhibition at 125 g/ha (GERPU; GERPU, individual, use rate 125 g ai/ha, read-out: observed % activity 20 DAT): 25%; inhibition at 250 g/ha (GERPU; GERPU, individual, use rate 250 g ai/ha, read-out: observed % activity 20 DAT): 25%

Question: How did the inhibition at 25 g/ha (COMBE; [3]) turn out when CS(=O)(=O)c1cc(C(F)(F)F)ccc1C(=O)c1cnoc1C1CC1 [isoxaflutole] was run?
Answer: 85%

Question: What about the inhibition at 50 g/ha (COMBE; [4]) of the same compound?
Answer: 80%

Question: What about the inhibition at 50 g/ha (COMBE; COMBE, individual, use rate 50 g ai/ha, read-out: observed % activity 20 DAT) of the same compound?
Answer: 45%

Question: And the inhibition at 25 g/ha (GALAP; [3])?
Answer: 40%

Question: What about the inhibition at 25 g/ha (GALAP; GALAP, individual, use rate 25 g ai/ha, read-out: observed % activity 20 DAT) of the same compound?
Answer: 40%

Question: What about the inhibition at 50 g/ha (GALAP; GALAP, individual, use rate 50 g ai/ha, read-out: observed % activity 20 DAT) of the same compound?
Answer: 70%

Question: And the inhibition at 25 g/ha (KCHSC; [3])?
Answer: 98%

Question: And the inhibition at 50 g/ha (KCHSC; [4])?
Answer: 98%

Question: What about the inhibition at 25 g/ha (KCHSC; KCHSC, individual, use rate 25 g ai/ha, read-out: observed % activity 20 DAT) of the same compound?
Answer: 98%

Question: What about the inhibition at 50 g/ha (KCHSC; KCHSC, individual, use rate 50 g ai/ha, read-out: observed % activity 20 DAT) of the same compound?
Answer: 98%

Question: And the inhibition at 25 g/ha (ANTAR; 25 g ai/ha)?
Answer: 95%

Question: And the inhibition at 50 g/ha (ANTAR; 50 g ai/ha)?
Answer: 98%

Question: What about the inhibition at 25 g/ha (EPHHL; [3]) of the same compound?
Answer: 85%

Question: What about the inhibition at 50 g/ha (EPHHL; [4]) of the same compound?
Answer: 85%

Question: What about the inhibition at 25 g/ha (EPHHL; EPHHL, individual, use rate 25 g ai/ha, read-out: observed % activity 20 DAT) of the same compound?
Answer: 65%

Question: What about the inhibition at 50 g/ha (EPHHL; EPHHL, individual, use rate 50 g ai/ha, read-out: observed % activity 20 DAT) of the same compound?
Answer: 70%

Question: What about the inhibition at 25 g/ha (SIDRH; 25 g ai/ha) of the same compound?
Answer: 90%

Question: And the inhibition at 50 g/ha (SIDRH; 50 g ai/ha)?
Answer: 98%

Question: And the inhibition at 25 g/ha (POLCO; [3])?
Answer: 0%

Question: And the inhibition at 50 g/ha (POLCO; [4])?
Answer: 30%

Question: What about the inhibition at 25 g/ha (POLCO; POLCO, individual, use rate 25 g ai/ha, read-out: observed % activity 20 DAT) of the same compound?
Answer: 0%

Question: And the inhibition at 50 g/ha (POLCO; POLCO, individual, use rate 50 g ai/ha, read-out: observed % activity 20 DAT)?
Answer: 0%

Question: And the inhibition at 25 g/ha (ABUTH; [3])?
Answer: 98%

Question: What about the inhibition at 50 g/ha (ABUTH; ABUTH, individual, use rate 50 g ai/ha, read-out: observed % activity 20 DAT) of the same compound?
Answer: 95%

Question: What about the inhibition at 50 g/ha (IPOHE; IPOHE, individual, use rate 50 g ai/ha, read-out: observed % activity 20 DAT) of the same compound?
Answer: 35%

Question: What about the inhibition at 25 g/ha (CENCY; use rate 25 g ai/ha) of the same compound?
Answer: 20%

Question: What about the inhibition at 50 g/ha (CENCY; use rate 50 g ai/ha) of the same compound?
Answer: 60%

Question: And the inhibition at 25 g/ha (GERPU; [3])?
Answer: 0%

Question: What about the inhibition at 50 g/ha (GERPU; [4]) of the same compound?
Answer: 45%

Question: And the inhibition at 25 g/ha (GERPU; GERPU, individual, use rate 25 g ai/ha, read-out: observed % activity 20 DAT)?
Answer: 70%

Question: What about the inhibition at 50 g/ha (GERPU; GERPU, individual, use rate 50 g ai/ha, read-out: observed % activity 20 DAT) of the same compound?
Answer: 50%
